Assay [1] is described as follows: Selective binding affinity against Opioid receptor delta 2, using [3H]DSLET as radioligand.
Assay [2] in a line: Selective binding affinity against Opioid receptor delta 1, using [3H]DPDPE as radioligand.

In BindingDB's records for doi:10.1021/jm00069a017 (University of Minnesota, 1993) one finds Ki data, which are given here for 1 compound.

As a reminder, the Ki is the dissociation constant of the complex between target and ligand, obtained from inhibition or displacement. Read a low Ki as higher affinity.

Take `CN1CC[C@]23c4c5ccc(O)c4O[C@H]2C(=O)C2(Cc4ccccc4C2)C[C@@]3(O)[C@H]1C5` [Spiroindanyloxymorphone]: the Ki was found to be 3.3 nM in assay [1] and 1.4 nM in assay [2].
